Experiments:
ERK1/2 = ERK1/2 activation immunoblot in the presence of PKA inhibitor H89; type: cell-based, human; details: β2AR transfected HEK-293 cells; PKA inhibitor H89 present; vs vehicle control
[1] = system: human airway smooth muscle (HASM) cells; experiment: Magnetic twisting cytometry (MTC) of HASM cells: relaxation and desensitization; type: cell-based; details: 1.0 mM ALB or 100 mM C1-S as printed, then 10 μM ISO
Description: CHW cells were transfected to stably express the human β2AR under G418 selection and maintained in monolayers as previously described. Transient transfections of HEK-293T cells with constructs to express human β-arrestin2-myc, human β-arrestin2-GFP, human β2AR and β2AR-GFP, were performed using Lipofectamine 2000 (Invitrogen), and studied 48 hrs later. CHO cells stably expressing a modified β2AR and a modified β-arrestin2 for the ECA were purchased from DiscoverX. In some experiments, these cells were transiently transfected with 5 μg GRK2 cDNA. Primary HASM cells were derived from donor lungs obtained from the National Disease Exchange Registry and maintained as monolayers, and utilized between passages 3 and 6 for the physiological studies. […]
MTC was used to measure dynamic changes in the cytoskeletal stiffness as a surrogate for agonist-induced single-cell relaxation. […] Forced bead motions were detected optically with a spatial resolution of ˜5 nm, and their changes monitored, in real time, in response to b-agonist (HASM cell relaxation). […] The response to 10 μM isoproterenol (final concentration) added to the media was then determined every 1.3 sec. […] The greatest relaxation change from baseline observed at any point over the time course was utilized to quantify the maximal HASM response to isoproterenol.

For `CC(C)(C)NCC(O)c1ccc(O)c(CO)c1` (stereo not shown) [ALB, albuterol], the “activation of ERK1/2” value (ERK1/2) was “activation of ERK1/2”, the “desensitization of β2AR-mediated HASM cell relaxation response to ISO” value ([1]; 30 min pretreatment) was “caused desensitization” and the “desensitization of β2AR-mediated HASM cell relaxation response to ISO” value ([1]; 4 hour pretreatment) was “caused desensitization”.
`CC(C)NCC(O)c1ccc(O)c(O)c1` (stereo not shown) [ISO, isoproterenol] was tested, and the “activation of ERK1/2” value (ERK1/2) was “activation of ERK1/2”.

Reference: US12024502B2, “Biased adrenergic agonists” (University of South Florida, priority 2021, dated 2024)
